Source: patent US8586593B2, “Insecticidal compounds” (Syngenta Crop Protection, Inc., priority 2009, dated 2013)

Experiments:
Type in all cases: in vivo
[1] = system: Diabrotica balteata; assay: Diabrotica balteata (corn root worm) larval test on artificial diet; conditions: 120 h, 200 ppm (concentration in well 18 ppm), L2 larvae, larval mortality and growth regulation after 5 days
Description: A 24-well microtiter plate (MTP) with artificial diet was treated with test solutions at an application rate of 200 ppm (concentration in well 18 ppm) by pipetting. After drying, the MTP's were infested with larvae (L2) (6-10 per well). After an incubation period of 5 days, samples were checked for larval mortality, and growth regulation.

[2] = system: Plutella xylostella; assay: Plutella xylostella (diamond back moth) larval test on artificial diet; conditions: 144 h, 200 ppm (concentration in well 18 ppm), L2 larvae, larval mortality and growth regulation after 6 days
Description: 24-well microtiter plate (MTP) with artificial diet was treated with test solutions at an application rate of 200 ppm (concentration in well 18 ppm) by pipetting. After drying, the MTP's were infested with L2 larvae (7-12 per well). After an incubation period of 6 days, samples were checked for larval mortality and growth regulation.

[3] = system: Heliothis virescens; assay: Heliothis virescens (tobacco budworm) egg test on artificial diet; conditions: 96 h, 200 ppm (concentration in well 18 ppm), eggs 0-24 h old on artificial diet, egg mortality, larval mortality and growth regulation after 4 days
Description: Eggs (0-24 h old) were placed in 24-well microtiter plate on artificial diet and treated with test solutions at an application rate of 200 ppm (concentration in well 18 ppm) by pipetting. After an incubation period of 4 days, samples were checked for egg mortality, larval mortality, and growth regulation.

[4] = system: Spodoptera littoralis; assay: Spodoptera littoralis (Egyptian cotton leafworm) leaf disc spray test; conditions: foliar, 72 h, 200 ppm sprayed on cotton leaf discs, 5 L1 larvae, mortality, feeding behavior and growth regulation 3 days after treatment
Text: Spodoptera littoralis (Egyptian Cotton Leafworm)
Cotton leaf discs were placed on agar in a 24-well microtiter plate and sprayed with test solutions at an application rate of 200 ppm. After drying, the leaf discs were infested with 5 L1 larvae. The samples were checked for mortality, feeding behavior, and growth regulation 3 days after treatment (DAT).

Measured: pest or weed control at 200 ppm

O=C(Nc1ccc(C(F)(F)F)cc1C1CCN(Cc2ccc(-c3ncc(F)cn3)cc2)CC1)c1ccnc(Cl)c1 [Compound A2, 2-chloro-N-(2-{1-[4-(5-fluoro-pyrimidin-2-yl)-benzyl]-piperidin-4-yl}-4-trifluoromethyl-phenyl)-isonicotinamide]
≥ 80%: all assays above

O=C(Nc1ccc(F)cc1C1CCN(Cc2ccc(-c3ncc(Cl)cn3)cc2)CC1)c1ccnc(Cl)c1 [Compound A10, 2-chloro-N-(2-{1-[4-(5-chloro-pyrimidin-2-yl)-benzyl]-piperidin-4-yl}-4-fluoro-phenyl)-isonicotinamide]
≥ 80%: all assays above

O=C(Nc1cc(OC(F)(F)F)ccc1C1CCN(Cc2ccc(-c3ncc(Cl)cn3)cc2)CC1)c1ccnc(Cl)c1 [Compound A12, 2-chloro-N-(2-{1-[4-(5-chloro-pyrimidin-2-yl)-benzyl]-piperidin-4-yl}-5-trifluoromethoxy-phenyl)-isonicotinamide]
≥ 80%: all assays above

O=C(Nc1ccc(C(F)(F)F)nc1C1CCN(Cc2ccc(-c3ncc(Cl)cn3)cc2)CC1)c1ccnc(Cl)c1 [Compound B1, 2-chloro-N-{1′-[4-(5-chloro-pyrimidin-2-yl)-benzyl]-6-trifluoromethyl-1′,2′,3′,4′,5′,6′-hexahydro-[2,4′]bipyridinyl-3-yl}-isonicotinamide]
≥ 80%: all assays above

O=C(Nc1ccc(C(F)(F)F)nc1C1CCN(Cc2ccc(-c3ncc(F)cn3)cc2)CC1)c1ccnc(Cl)c1 [Compound B2, 2-chloro-N-{1′-[4-(5-fluoro-pyrimidin-2-yl)-benzyl]-6-trifluoromethyl-1′,2′,3′,4′,5′,6′-hexahydro-[2,4′]bipyridinyl-3-yl}-isonicotinamide]
≥ 80%: all assays above

O=C(Nc1ccc(OC(F)F)nc1C1CCN(Cc2ccc(-c3ncc(Cl)cn3)cc2)CC1)c1ccnc(Cl)c1 [Compound B6, 2-chloro-N-{1′-[4-(5-chloro-pyrimidin-2-yl)-benzyl]-6-difluoromethoxy-1′,2′,3′,4′,5′,6′-hexahydro-[2,4′]bipyridinyl-3-yl}-isonicotinamide]
≥ 80%: all assays above

O=C(Nc1c(F)cc(C(F)(F)F)nc1C1CCN(Cc2ccc(-c3ncc(Cl)cn3)cc2)CC1)c1ccnc(Cl)c1 [Compound B7, 2-chloro-N-{1′-[4-(5-chloro-pyrimidin-2-yl)-benzyl]-4-fluoro-6-trifluoromethyl-1′,2′,3′,4′,5′,6′-hexahydro-[2,4′]bipyridinyl-3-yl}-isonicotinamide]
≥ 80%: all assays above

O=C(Nc1ccc(C(F)(F)F)cc1C1CC[N+]([O-])(Cc2ccc(-c3ncc(Cl)cn3)cc2)CC1)c1ccnc(Cl)c1 (stereo not drawn) [Compound C1, 2-chloro-N-(2-{1-[4-(5-chloro-pyrimidin-2-yl)-benzyl]-1-oxy-piperidin-4-yl}-4-trifluoromethyl-phenyl)-isonicotinamide]
≥ 80%: all assays above

O=C(Nc1ccc(C(F)(F)F)cc1C1CCN(Cc2ccc(-c3ncc(Cl)cn3)cc2)CC1)c1ccnc(Cl)c1 [Compound E1, 2-chloro-N-(2-{1-[4-(5-chloro-pyrimidin-2-yl)-benzyl]-piperidin-4-yl}-4-trifluoromethyl-phenyl)-isonicotinamide acetate]
≥ 80%: [2]

O=C(Nc1ccc(C(F)(F)F)cc1C1CCN(Cc2ccc(-c3ncc(Cl)cn3)cc2)CC1)c1ccnc(Cl)c1 [Compound E8]
≥ 80%: [1] | [3] | [4]
